Tests used:
[1] = test system: paddy rice (variety: Nipponbare); assay: Test for safening effect against phytotoxicity of herbicidal compounds against paddy rice; format: in vivo
Experimental: (§1) Test results were evaluated by Colby's equation. Colby's equation: [formula]
Test Example 2: Test for Safening Effect against Phytotoxicity of Herbicidal Compounds against Paddy Rice (Method)
Two seedlings of paddy rice (variety: Nipponbare) of 2.5 leaf stage were transplanted in a plastic pot under submerged conditions with a trnsplantation depth of 0 cm. A diluted solution with the prescribed concentration of the 4% granules of the compound No. I-1 and herbicidal compounds were applied on the water surface. Three weeks after the application the degree of phytotoxicity was observed and evaluated in 0-100%.
100%=Complete withering state

[2] = test system: wheat (variety: Norin No.61); assay: Test for safening effect against phytotoxicity of herbicidal compounds against wheat; format: in vivo; settings: for Phytotoxicity %: wheat seeds in dish, after 5 days; for Expected value E by Colby's equation (Phytotoxicity %): wheat
Experimental: Preparation of Test Solution
Carrier: Acetone 5 parts by weight
Surfactant: Benzyloxy polyglycol ether 1 part by weight
A prescribed amount of the test solution is prepared by diluting with water the formulation obtained by mixing the above-mentioned carrier and surfactant with 1 part by weight of the active compounds (safeners and herbicidal compounds).
Test Example 1: Test for Safening Effect against Phytotoxicity of Herbicidal Compounds against Wheat
Seeds of wheat (variety: Norin No.61) were sown on absorbent cotton in a dish, containing the previously prepared, diluted solution with the prescribed concentration of the test compounds, and grown in a climate chamber. After 5 days the degree of phytotoxicity, particularly bleaching state, was observed and evaluated in 0-100%.
100% =Complete bleaching or withering state
as §1
E: Expected value of phytotoxicity by mixing
X: Measured value of phytotoxicity by one active compound • Y: Measured value of phytotoxicity by the other active compound Table 1

[3] = safener 10 ppm alone (H-1 0 ppm), 0% = no phytotoxicity, 100% = complete bleaching or withering
[4] = safener 50 ppm alone (H-1 0 ppm)

SMILES	Phytotoxicity % ([2]; safener 10 ppm + H-1 10 ppm)	Phytotoxicity % [2, 3]	Phytotoxicity % ([2]; safener 50 ppm + H-1 10 ppm)	Phytotoxicity % [2, 4]	Expected value E by Colby's equation (Phytotoxicity %) ([2]; safener 10 ppm + H-1 10 ppm)	Expected value E by Colby's equation (Phytotoxicity %) ([2]; safener 50 ppm + H-1 10 ppm)	further results
CS(=O)(=O)c1ccc(C(=O)C2=C(O)CCCC2=O)c(Cl)c1COCC1CCCO1 (stereo not drawn) [H-1]							Phytotoxicity % ([1]; paddy rice, three weeks after application, H-1 0.6 kg/ha + No. I-1 1 kg/ha): 10%; Phytotoxicity % ([1]; paddy rice, three weeks after application, H-1 0.6 kg/ha alone (No. I-1 0 kg/ha)): 30%; Expected value E by Colby's equation (Phytotoxicity %) ([1]; paddy rice, H-1 0.6 kg/ha + No. I-1 1 kg/ha): 30%; Phytotoxicity % ([2]; H-1 10 ppm alone (safener 0 ppm)): 50%
COC(=O)c1ccccc1CS(=O)(=O)NC(=O)Nc1nc(OC)cc(OC)n1 [H-2, Bensuiliron-methyl]							Phytotoxicity % ([1]; in vivo): 40%
CCOC(=O)[C@@H](C)Oc1ccc(Oc2nc3ccc(Cl)cc3o2)cc1 [H-3, Fenoxaprop-P-ethyl]							Phytotoxicity % ([1]; paddy rice, three weeks after application, H-3 0.1 kg/ha + No. I-1 1 kg/ha): 40%; Phytotoxicity % ([1]; paddy rice, three weeks after application, H-3 0.1 kg/ha alone (No. I-1 0 kg/ha)): 70%; Expected value E by Colby's equation (Phytotoxicity %) ([1]; paddy rice, H-3 0.1 kg/ha + No. I-1 1 kg/ha): 70%
N#Cc1ccccc1NC(=O)c1snc(Cl)c1Cl [No. I-1]	20%	0%	20%	0%	50%	50%	Phytotoxicity % ([1]; paddy rice 2.5 leaf stage, three weeks after application, No. I-1 (4% granules) 1 kg/ha alone, herbicide 0 kg/ha): 0%
Cc1ccc(NC(=O)c2snc(Cl)c2Cl)c(C)c1 [No. I-2]	30%	0%	10%	0%	50%	50%	
CN(C)CNC(=O)c1snc(Cl)c1Cl [No. I-3]	5%	0%	0%	0%	50%	50%	
CCC(C)c1ccc(NC(=O)c2snc(Cl)c2Cl)cc1 (stereo not drawn) [No. I-4]	10%	0%	5%	0%	50%	50%	
CCC(CC)c1ccc(NC(=O)c2snc(Cl)c2Cl)cc1 [No. I-5]	30%	0%	10%	0%	50%	50%	
CCN(CC)Cc1ccc(CNC(=O)c2snc(Cl)c2Cl)cc1 [No. I-6]	15%	0%	15%	0%	50%	50%	
CC(C)(C)CSCc1ccc(NC(=O)c2snc(Cl)c2Cl)cc1 [No. I-7]	30%	0%	20%	0%	50%	50%	
